The values that follow come from paper PMC8698299, “Targeting Mycobacterial F-ATP Synthase C-Terminal α Subunit Interaction Motif on Rotary Subunit γ” (Antibiotics, 2021).

In the experiment the target is T1, F-ATP synthase (subunit γ, site proposed by docking) (Mycolicibacterium smegmatis, UniProt A0R201).
T1 construct: gene atpG; Recombinant M. smegmatis WT F-ATP synthase, purified and reconstituted into proteoliposomes; with other F-ATP synthase subunits (α3:β3:γ:δ:ε:a:b:b’:c9), in particular subunit α
T1 sequence (A0R201 2-307): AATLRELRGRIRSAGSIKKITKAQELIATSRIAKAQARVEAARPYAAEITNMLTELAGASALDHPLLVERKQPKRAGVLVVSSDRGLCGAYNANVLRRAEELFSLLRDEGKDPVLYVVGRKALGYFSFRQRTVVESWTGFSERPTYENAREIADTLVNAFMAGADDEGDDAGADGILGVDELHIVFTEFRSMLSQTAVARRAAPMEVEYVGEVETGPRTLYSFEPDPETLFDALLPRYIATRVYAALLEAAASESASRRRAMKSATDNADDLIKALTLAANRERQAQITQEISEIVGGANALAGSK
As to the kind of experiment: ATP synthesis by reconstituted recombinant MsF-ATP synthase, continuous luciferase assay (also IMV ATP synthesis, IC50 […]). It counts as biochemical.

The term inhibition denotes the change of the read-out against control, counted positive when it falls.

Take `COc1cc(NC(=O)C2=C(C)OCCS2)c(Cl)cc1C(=O)NCCCN1CCCC1=O` [AlMF1, N-(2-chloro-5-methoxy-4-((3-(2-oxopyrrolidin-1-yl)propyl)carbamoyl)phenyl)-2-methyl-5,6-dihydro-1,4-oxathiine-3-carboxamide]: the inhibition at 50 µM turned out to be 71%.
